Experimental data from US6887890B2, “Compounds exhibiting thrombopoietin-like activities” (Chugai Seiyaku Kabushiki Kaisha, priority 2000, dated 2005).

Test system: Mpl-expressing Ba/F3 cell line (human mpl gene)
Experiment: Measurement of thrombopoietin (TPO) activity: viable cell count of Mpl-expressing Ba/F3 cell line (Cell Count Reagent SF, absorbance 450 nm)
Assay type: cell-based
Details: for Concentration: concentration corresponding to the maximum TPO activity value; for TPO activity: maximum TPO activity value, ODt/ODs×100 relative to maximum reaction of human TPO, Mpl-expressing Ba/F3 cells cultured at 37° C. for one day, at the concentration given
Description: The TPO activities of the compounds of the invention obtained in the aforementioned examples were measured by the procedure described below, for evaluation of their thrombopoietic effects.
Establishment of Mpl-expressing Ba/F3 Cell Line
The human mpl gene was cloned from cDNAs of the human erythroleukemia cell line HEL by PCR, and was incorporated into pCOS1 to construct an expression vector. The expression vector was transfected into Ba/F3 cells by electroporation method, and an Mpl-expressing Ba/F3 clone was established.
Measurement of Thrombopoietin (TPO) Activity
The cytokine-eliminated Mpl-expressing Ba/F3 line was plated in a 96-well plate at 25,000 cells/well. DMSO solutions containing the compounds obtained in each of the examples were then prepared to different specified concentration ranges, and each solution was added to the Mpl-expressing Ba/F3 cell line (final DMSO concentration: ≦0.1%), and the cell were cultured at 37° C. for one day. Human TPO (by R&D Systems or Genzyme) was used as a positive control.
Each of the cultured Mpl-expressing Ba/F3 cell lines was subjected to absorbance measurement at a wavelength of 450 nm (reference wavelength: 620 nm), corresponding to the viable cell count, using Cell Count Reagent SF (by Nacalai Tesque Inc.). The TPO activity of each compound for the Mpl-expressing Ba/F3 cell line was determined based on the following formula. TPO activity (%)=ODt/ODs×100
ODs: Absorbance at maximum reaction of human TPO (wavelength: 450-620 nm).
ODt: Absorbance of test solution (wavelength: 450-620 nm).
Tables 1 and 2 show the maximum TPO activity values and the corresponding concentrations of each compound, as obtained by the test described above.

Row | SMILES | Concentration [µM] | TPO activity [%]
1 | NCCC[C@H](NC(=O)Cc1c[nH]c2ccccc12)C(=O)Nc1ccc(C(c2ccc(NC(=O)[C@H](CCCN)NC(=O)Cc3c[nH]c4ccccc34)cc2)c2ccc(NC(=O)[C@H](CCCN)NC(=O)Cc3c[nH]c4ccccc34)cc2)cc1.O=C(O)C(F)(F)F [Example 134, tris[4-[N-α-[2-(1H-indol-3-yl)acetyl]-L-ornithyl]aminophenyl]methane trifluoroacetate] | 50 | 67.2
2 | COc1ccc2[nH]c(C)c(CC(=O)N[C@@H](CCCN)C(=O)Nc3ccc(C(c4ccc(NC(=O)[C@H](CCCN)NC(=O)Cc5c(C)[nH]c6ccc(OC)cc56)cc4)c4ccc(NC(=O)[C@H](CCCN)NC(=O)Cc5c(C)[nH]c6ccc(OC)cc56)cc4)cc3)c2c1.O=C(O)C(F)(F)F [Example 135, tris[4-[N-α-[2-(5-methoxy-2-methyl-1H-indol-3-yl)acetyl]-L-ornithyl]aminophenyl]methane trifluoroacetate] | 50 | 15.8
3 | COc1ccc2c(CC(=O)N[C@H](CCCCN)C(=O)Nc3ccc(C(c4ccc(NC(=O)[C@@H](CCCCN)NC(=O)Cc5c(C)[nH]c6cc(OC)ccc56)cc4)c4ccc(NC(=O)[C@@H](CCCCN)NC(=O)Cc5c(C)[nH]c6cc(OC)ccc56)cc4)cc3)c(C)[nH]c2c1.Cl [Example 146, tris[4-[N-α-[2-(6-methoxy-2-methyl-1H-indol-3-yl)acetyl]-D-lysyl]aminophenyl]methane hydrochloride] | 25 | 83.6
4 | CCc1[nH]c2ccccc2c1CC(=O)N[C@H](CCCCN)C(=O)Nc1ccc(C(c2ccc(NC(=O)[C@@H](CCCCN)NC(=O)Cc3c(CC)[nH]c4ccccc34)cc2)c2ccc(NC(=O)[C@@H](CCCCN)NC(=O)Cc3c(CC)[nH]c4ccccc34)cc2)cc1.Cl [Example 148, tris[4-[N-α-[2-(2-ethyl-1H-indol-3-yl)acetyl]-D-lysyl]aminophenyl]methane hydrochloride] | 25 | 73.6
5 | Cl.NCCCC[C@@H](NC(=O)c1cc2cc(O)ccc2[nH]1)C(=O)Nc1ccc(C(c2ccc(NC(=O)[C@@H](CCCCN)NC(=O)c3cc4cc(O)ccc4[nH]3)cc2)c2ccc(NC(=O)[C@@H](CCCCN)NC(=O)c3cc4cc(O)ccc4[nH]3)cc2)cc1 [Example 151, tris[4-[N-α-(5-hydroxy-1H-indol-2-yl)carbonyl-D-lysyl]aminophenyl]methane hydrochloride] | 50 | 90.8
6 | Cl.NCCCC[C@@H](NC(=O)c1cccc2[nH]ccc12)C(=O)Nc1ccc(C(c2ccc(NC(=O)[C@@H](CCCCN)NC(=O)c3cccc4[nH]ccc34)cc2)c2ccc(NC(=O)[C@@H](CCCCN)NC(=O)c3cccc4[nH]ccc34)cc2)cc1 [Example 152, tris[4-[N-α-(1H-indol-4-yl)carbonyl-D-lysyl]aminophenyl]methane hydrochloride] | 25 | 62.0
7 | Cc1cccc2c(CC(=O)N[C@H](CCCCN)C(=O)Nc3ccc(C(c4ccc(NC(=O)[C@@H](CCCCN)NC(=O)Cc5c[nH]c6c(C)cccc56)cc4)c4ccc(NC(=O)[C@@H](CCCCN)NC(=O)Cc5c[nH]c6c(C)cccc56)cc4)cc3)c[nH]c12.Cl [Example 155, tris[4-[N-α-[2-(7-methyl-1H-indol-3-yl)acetyl]-D-lysyl]aminophenyl]methane hydrochloride] | 25 | 44.3
8 | Cl.NCCCC[C@@H](NC(=O)c1cnccn1)C(=O)Nc1ccc(C(c2ccc(NC(=O)[C@@H](CCCCN)NC(=O)c3cnccn3)cc2)c2ccc(NC(=O)[C@@H](CCCCN)NC(=O)c3cnccn3)cc2)cc1 [Example 157, tris[4-[N-α-(pyrazin-2-yl)carbonyl-D-lysyl]aminophenyl]methane hydrochloride] | 50 | 36.1
9 | Cl.NCCCC[C@@H](NC(=O)Cc1cccc(O)c1)C(=O)Nc1ccc(C(c2ccc(NC(=O)[C@@H](CCCCN)NC(=O)Cc3cccc(O)c3)cc2)c2ccc(NC(=O)[C@@H](CCCCN)NC(=O)Cc3cccc(O)c3)cc2)cc1 [Example 159, tris[4-[N-α-[2-(3-hydroxyphenyl)acetyl]-D-lysyl]aminophenyl]methane hydrochloride] | 25 | 18.6
10 | Cl.NCCCC[C@@H](NC(=O)[C@H](N)Cc1ccc(O)cc1)C(=O)Nc1ccc(C(c2ccc(NC(=O)[C@@H](CCCCN)NC(=O)[C@H](N)Cc3ccc(O)cc3)cc2)c2ccc(NC(=O)[C@@H](CCCCN)NC(=O)[C@H](N)Cc3ccc(O)cc3)cc2)cc1 [Example 160, tris[4-[N-α-(D-tyrosyl)-D-lysyl]aminophenyl]methane hydrochloride] | 100 | 22.5
11 | Cl.NCCCC[C@@H](NC(=O)[C@H](N)Cc1c[nH]c2ccccc12)C(=O)Nc1ccc(C(c2ccc(NC(=O)[C@@H](CCCCN)NC(=O)[C@H](N)Cc3c[nH]c4ccccc34)cc2)c2ccc(NC(=O)[C@@H](CCCCN)NC(=O)[C@H](N)Cc3c[nH]c4ccccc34)cc2)cc1 [Example 161, tris[4-[N-α-(D-tryptophyl)-D-lysyl]aminophenyl]methane hydrochloride] | 25 | 65.6
12 | Cl.NCCCC[C@@H](NC(=O)Cc1cccs1)C(=O)Nc1ccc(C(c2ccc(NC(=O)[C@@H](CCCCN)NC(=O)Cc3cccs3)cc2)c2ccc(NC(=O)[C@@H](CCCCN)NC(=O)Cc3cccs3)cc2)cc1 [Example 164, tris[4-[N-α-[2-(thiophen-2-yl)acetyl]-D-lysyl]aminophenyl]methane hydrochloride] | 25 | 24.9
13 | Cl.NCCCC[C@@H](NC(=O)Cc1ccccn1)C(=O)Nc1ccc(C(c2ccc(NC(=O)[C@@H](CCCCN)NC(=O)Cc3ccccn3)cc2)c2ccc(NC(=O)[C@@H](CCCCN)NC(=O)Cc3ccccn3)cc2)cc1 [Example 172, tris[4-[N-α-[2-(pyridin-2-yl)acetyl]-D-lysyl]aminophenyl]methane hydrochloride] | 100 | 24.4
14 | Cl.NCCCC[C@@H](NC(=O)Cc1ccncc1)C(=O)Nc1ccc(C(c2ccc(NC(=O)[C@@H](CCCCN)NC(=O)Cc3ccncc3)cc2)c2ccc(NC(=O)[C@@H](CCCCN)NC(=O)Cc3ccncc3)cc2)cc1 [Example 173, tris[4-[N-α-[2-(pyridin-4-yl)acetyl]-D-lysyl]aminophenyl]methane hydrochloride] | 100 | 35.4
15 | NCCCC[C@@H](NC(=O)c1cccc(O)c1)C(=O)Nc1ccc(C(c2ccc(NC(=O)[C@@H](CCCCN)NC(=O)c3cccc(O)c3)cc2)c2ccc(NC(=O)[C@@H](CCCCN)NC(=O)c3cccc(O)c3)cc2)cc1.O=C(O)C(F)(F)F [Example 186, tris[4-[N-α-(3-hydroxybenzoyl)-D-lysyl]aminophenyl]methane trifluoroacetate] | 25 | 35.8
16 | N[C@H](CCCCNC(=O)Cc1ccccc1)C(=O)Nc1ccc(C(c2ccc(NC(=O)[C@H](N)CCCCNC(=O)Cc3ccccc3)cc2)c2ccc(NC(=O)[C@H](N)CCCCNC(=O)Cc3ccccc3)cc2)cc1.O=C(O)C(F)(F)F [Example 187, tris[4-[N-ε-(2-phenylacetyl)-D-lysyl]aminophenyl]methane trifluoroacetate] | 25 | 60.2
17 | NCCCC[C@@H](NC(=O)Cc1ccc(O)c(O)c1)C(=O)Nc1ccc(C(c2ccc(NC(=O)[C@@H](CCCCN)NC(=O)Cc3ccc(O)c(O)c3)cc2)c2ccc(NC(=O)[C@@H](CCCCN)NC(=O)Cc3ccc(O)c(O)c3)cc2)cc1.O=C(O)C(F)(F)F [Example 188, tris[4-[N-α-[2-(3,4-dihydroxyphenyl)acetyl]-D-lysyl]aminophenyl]methane trifluoroacetate] | 100 | 10.1
18 | NCCCC[C@@H](NC(=O)c1cccc2cc(O)ccc12)C(=O)Nc1ccc(C(c2ccc(NC(=O)[C@@H](CCCCN)NC(=O)c3cccc4cc(O)ccc34)cc2)c2ccc(NC(=O)[C@@H](CCCCN)NC(=O)c3cccc4cc(O)ccc34)cc2)cc1.O=C(O)C(F)(F)F [Example 192, tris[4-[N-α-(6-hydroxynaphthalen-1-yl)carbonyl-D-lysyl]aminophenyl]methane trifluoroacetate] | 25 | 71.3
19 | NCCCC[C@H](NC(=O)Cc1ccccc1)C(=O)Nc1ccc(C(c2ccc(NC(=O)[C@H](CCCCN)NC(=O)Cc3ccccc3)cc2)c2ccc(NC(=O)[C@H](CCCCN)NC(=O)Cc3ccccc3)cc2)cc1.O=C(O)C(F)(F)F [Example 199, tris[4-[N-α-(2-phenylacetyl)-L-lysyl]aminophenyl]methane trifluoroacetate] | 12.5 | 47.0
